Assay [1] concerns RBCs. In words: Inhibition of complement-induced hemolysis in sensitized sheep erythrocytes. The class given is functional, cell-based. Particulars: Ovis aries, Erythrocyte.
For assay [2], the system named is RBCs. The assay is described as follows: Inhibition of complement-induced hemolysis in sensitized sheep erythrocytes at 253 ug/ml. Particulars: Ovis aries, Erythrocyte. In kind it is functional.

Several values for one entry are separate records, joined by “and”; a condition that tells them apart may be missing. Equal values may be shown once.

By IC50 is commonly meant the concentration that gives 50% inhibition. As usually defined, the inhibition is how much of the control response was suppressed.

For the compound `COc1ccc(C(=O)[O-])c2c1CC1(CCCCC1)O2.[Na+]`, in the assay on RBCs [1], the IC50 is 1.3 mM and 341 µg/mL.

For `C[C@@H]1CCC2C(C)(C)[C@H](O)[C@H](O)C[C@]2(C)[C@@]12Cc1c(O)cc(C(=O)[O-])c(C=O)c1O2.[Na+]` (stereo partly specified), in the assay with RBCs [1], the IC50 was 570 µM and 238 µg/mL.

On to `C[C@]1(O)CC[C@@H]([C@]2(C)Cc3c(O)ccc(C(=O)[O-])c3O2)C[C@H]1O.[Na+]`, for which the IC50 with RBCs [1] was 1.6 mM and 515 µg/mL.

With `C[C@H]1CC[C@@H](O)C(C)(C)[C@@]12Cc1cc(C(=O)[O-])cc(C#N)c1O2.[Na+]`, the IC50 in the assay on RBCs [1] is 1.32 mM and 415 µg/mL.

Regarding `CC(=O)c1cc2c(cc1O)C[C@@]1(O2)[C@@H](C)CC[C@@H](O)C1(C)C`, the inhibition at 253 µg/mL in the assay with RBCs [2] is 17%.

Take `C[C@H]1CC[C@@H](O)C(C)(C)[C@@]12Cc1cc(C(=O)[O-])ccc1O2.[Na+]`: the IC50 in the assay on RBCs [1] is 2 mM and 580 µg/mL.

Turning to `CC(=O)c1c(O)ccc2c1C[C@@]1(O2)[C@@H](C)CC[C@@H](O)C1(C)C`, in the assay on RBCs [1], the IC50 was 1.07 mM and 320 µg/mL.

On to `COc1cc(C(=O)[O-])cc2c1CC1(CCCCC1)O2.[Na+]`, for which the half-maximal inhibitory concentration (IC50) in the assay on RBCs [1] is 820 µM and 214 µg/mL.

Regarding `C[C@H]1CC[C@@H](O)C(C)(C)[C@@]12Cc1cc(O)ccc1O2`, the IC50 with RBCs [1] was 455 µM and 260 µg/mL.

As for `C[C@H]1CC[C@@H](O)C(C)(C)[C@@]12Cc1cc(C(=O)[O-])cc(Br)c1O2.[Na+]`, the IC50 with RBCs [1] was 950 µM and 350 µg/mL.

As for `COc1cc(C(=O)[O-])c(C=O)c2c1CC1(CCCCC1)O2.[Na+]`, the IC50 in the assay with RBCs [1] is 160 µM and 44 µg/mL.

The values above are taken from ChEMBL document CHEMBL1149522, “Synthesis of 3H-spiro[benzofuran-2,1'-cyclohexane] derivatives from naturally occurring filifolinol and their classical complement pathway inhibitory activity” (Bioorg Med Chem Lett, 2006).
